In BigSolDB 2.1:

CCCCCCCCCCCCCCCCOc1nc2ccc(C)cc2c(=O)o1
solubility (mole fraction)
Conditions | 278.15 K | 283.15 K | 288.15 K | 293.15 K | 298.15 K | 303.15 K | 308.15 K | 313.15 K | 318.15 K | 323.15 K
in acetone | 0.0814 | 0.0965 | 0.114 | 0.133 | 0.157 | 0.18 | 0.208 | 0.245 | 0.284 | 0.327
in acetonitrile | 0.0619 | 0.0759 | 0.089 | 0.106 | 0.123 | 0.144 | 0.167 | 0.191 | 0.222 | 0.259
in isopropanol | 0.0702 | 0.0829 | 0.0979 | 0.116 | 0.137 | 0.158 | 0.181 | 0.207 | 0.241 | 0.28
